Assay results reported in US20240381872A1, “SUBSTITUTED 2,3-DIHYDRO[1,3]THIAZOLO[4,5-B]PYRIDINES, SALTS THEREOF AND THEIR USE AS HERBICIDALLY ACTIVE SUBSTANCES” (BAYER AKTIENGESELLSCHAFT, priority 2021, published 2024).

Legend:
Assay type in all cases: in vivo
Brassica napus (BRSNW) = assay: Post-emergence effects on crop plants, section F (Table F5); details: Brassica napus, 504 h, application rate 80 g/ha, read-out: post-emergence activity against BRSNW in %
Method in brief: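 Percent damage was rated by eye roughly 3 weeks after treatment against untreated plants, where 0% = as control and 100% = died off. Spraying used WP or EC formulations plus 0.5% additive at 600 l water/ha, with rates of 320 g/ha or less. Plants were at the single-leaf stage, sown 2-3 weeks earlier in sandy loam under greenhouse conditions.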

[1] = test system: Polygonum convolvulus (POLCO); assay: Herbicidal post-emergence action, section E (Table E7); details: visual assessment ca. 3 weeks after spraying; for pest or weed control at 320 g/ha / post-emergence activity against POLCO in %: application rate 320 g/ha
Text: (§1) Seeds of mono- and dicotyledonous weed plants and crop plants were sown, in plastic or organic planting pots, in sandy loam, covered with soil and grown in a greenhouse under controlled growth conditions. 2 to 3 weeks after sowing, the test plants were sprayed in the single-leaf stage. The compounds according to the invention, formulated in form of wettable powders (WP) or as emulsifiable concentrates (EC), were sprayed onto the green plant parts as aqueous suspension or emulsion, with the addition of 0.5% of an additive, at an application rate of 600 l of water/ha (converted). The test plants were placed in the greenhouse for ca. 3 weeks under optimum growth conditions, and then the effect of the preparations was assessed visually in comparison with untreated controls (herbicidal effect in percent (%): 100% effect=plants have died off, 0% effect=as control plants).

Zea mays (ZEAMX) = assay: Pre-emergence effects on crop plants, section D (Table D1); details: visual grading after ca. 3 weeks
Method in brief: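 Pre-emergence soil-surface spray, 320 g/ha or below, 600 l water/ha + 0.5% additive; WP/EC formulations; sandy loam; greenhouse; visual % damage vs untreated at ~3 wk.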

Setaria viridis (SETVI) = assay: Herbicidal post-emergence action, section E (Table E8); details: visual assessment ca. 3 weeks after spraying; for pest or weed control at 80 g/ha: Setaria viridis, 504 h, application rate 80 g/ha, read-out: post-emergence activity against SETVI in %
Text: as §1

[2] = test system: Alopecurus myosuroides (ALOMY); assay: Herbicidal post-emergence action, section B (Table B2); details: rated visually about 3 weeks after treatment vs untreated controls, 100% = plants have died, 0% = like control plants; for pest or weed control at 1280 g/ha: application rate 1280 g/ha
Method: (§2) Seeds of mono- and dicotyledonous weed plants were placed in plastic pots in sandy loam soil (doubly sown with in each case one species of mono- or dicotyledonous weed plants per pot), covered with soil and cultivated in a greenhouse under controlled growth conditions. 2 to 3 weeks after sowing, the test plants were treated at the one-leaf stage. The compounds of the invention, formulated in the form of wettable powders (WP) or as emulsion concentrates (EC), were applied onto the green parts of the plants as aqueous suspension or emulsion with addition of 0.5% additive at a water application rate of 600 liters per hectare (converted). After the test plants had been kept in the greenhouse under optimum growth conditions for about 3 weeks, the activity of the preparations was rated visually in comparison to untreated controls. For example, 100% activity=the plants have died, 0% activity=like control plants.

Kochia scoparia (KCHSC) = assay: Herbicidal post-emergence action, section B (Table B4); details: visual rating about 3 weeks after treatment vs untreated controls
Method in brief: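 Post-emergence greenhouse test. One-leaf stage; WP or EC plus 0.5% additive; 600 liters per hectare water volume; visual % rating at ~3 weeks relative to untreated plants.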

[3] = test system: Matricaria inodora (MATIN); assay: Herbicidal post-emergence action, section B (Table B6); details: application rate 1280 g/ha, visual rating about 3 weeks after treatment vs untreated controls
Method: as §2

[4] = test system: Abutilon theophrasti (ABUTH); assay: Herbicidal post-emergence action, section E (Table E1); details: application rate 320 g/ha, assessed visually after ca. 3 weeks
Text: as §1

[5] = Fallopia convolvulus, 504 h, read-out: post-emergence activity against POLCO in %
[6] = Alopecurus myosuroides, post-emergence, 504 h, read-out: post-emergence activity against ALOMY
[7] = Bassia scoparia, post-emergence, 504 h, application rate 320 g/ha, read-out: post-emergence activity against KCHSC in %

For `Fc1ccccc1-c1nc2c(cc1Br)SCN2` [Example I-001, 6-bromo-5-(2-fluorophenyl)-2,3-dihydro[1,3]thiazolo[4,5-b]pyridine], the crop plant damage (phytotoxicity) in % at 80 g/ha (Brassica napus (BRSNW)) was 20%, the pest or weed control at 320 g/ha [1, 5] was 90% and the “pre-emergence activity against ZEAMX in % (crop plant damage)” value (Zea mays (ZEAMX); application rate 80 g/ha) was 10%. The pest or weed control at 80 g/ha (Setaria viridis (SETVI)) was 90%.
With `COC(=O)CCC(=O)N1CSc2cc(Cl)c(-c3ccccc3F)nc21` [Example I-003] the “post-emergence activity against ALOMY” value ([2]; application rate 320 g/ha) was 100%, the “post-emergence activity against SETVI in %” value (Setaria viridis (SETVI); application rate 320 g/ha) was 80% and the “post-emergence activity against KCHSC in %” value (Kochia scoparia (KCHSC); application rate 320 g/ha) was 90%.
`Cc1cc2c(nc1-c1ccccc1F)NCS2` [Example I-007, 5-(2-fluorophenyl)-6-methyl-2,3-dihydro[1,3]thiazolo[4,5-b]pyridine] was tested, and the pest or weed control at 320 g/ha ([2]; Alopecurus myosuroides, post-emergence, 504 h, application rate 320 g/ha, read-out: post-emergence activity against ALOMY) was 90%, the pest or weed control at 80 g/ha ([1]; Fallopia convolvulus, 504 h, application rate 80 g/ha, read-out: post-emergence activity against POLCO in %) was 90% and the pest or weed control at 80 g/ha (Setaria viridis (SETVI)) was 90%. For the same compound, the pest or weed control at 1280 g/ha (Kochia scoparia (KCHSC); Bassia scoparia, post-emergence, 504 h, application rate 1280 g/ha, read-out: post-emergence activity against KCHSC in %) was 90%, the pest or weed control at 1280 g/ha ([3]; Tripleurospermum inodorum, post-emergence, 504 h, read-out: post-emergence activity against MATIN in %) was 90% and the pest or weed control at 320 g/ha ([4]; Abutilon theophrasti, post-emergence, 504 h, read-out: post-emergence activity against ABUTH in %) was 80%.
In the case of `COC(=O)CCC(=O)N1CSc2cc(C)c(-c3ccccc3F)nc21` [Example I-010], the “post-emergence activity against POLCO in %” value [1] is reported as 90%, the “post-emergence activity against KCHSC in %” value (Kochia scoparia (KCHSC); application rate 320 g/ha) is reported as 90% and the “post-emergence activity against MATIN in %” value [3] is reported as 90%. For the same compound, the “post-emergence activity against ABUTH in %” value [4] was 80%.
`BN1CSc2cc(Br)c(-c3ccccc3C)nc21` [Example I-011] was tested, and the “post-emergence activity against POLCO in %” value [1] was 80%, the “pre-emergence activity against ZEAMX in % (crop plant damage)” value (Zea mays (ZEAMX); application rate 320 g/ha) was 10% and the “post-emergence activity against KCHSC in %” value (Kochia scoparia (KCHSC); application rate 1280 g/ha) was 90%.
In the case of `Cc1cc2c(nc1-c1cccc(F)c1F)NCS2` [Example I-029, 5-(2,3-difluorophenyl)-6-methyl-2,3-dihydro[1,3]thiazolo[4,5-b]pyridine], the pest or weed control at 1280 g/ha [2, 6] is reported as 90%, the pest or weed control at 320 g/ha [1, 5] is reported as 90% and the pest or weed control at 320 g/ha (Kochia scoparia (KCHSC); [7]) is reported as 90%.
For `Clc1ccccc1-c1nc2c(cc1Br)SCN2` [Example I-041, 6-bromo-5-(2-chlorophenyl)-2,3-dihydro[1,3]thiazolo[4,5-b]pyridine], the pest or weed control at 1280 g/ha [2, 6] was 90%, the “pre-emergence activity against ZEAMX in % (crop plant damage)” value (Zea mays (ZEAMX); application rate 80 g/ha) was 0% and the pest or weed control at 320 g/ha (Kochia scoparia (KCHSC); [7]) was 90%.
